Data as given in ChEMBL document CHEMBL4265906, “Synthesis and biological evaluation of isoxazolyl-sulfonamides: A non-cytotoxic scaffold active against Trypanosoma cruzi, Leishmania amazonensis and Herpes Simplex Virus” (Bioorg Med Chem Lett, 2018).
Activity calls are given as the source filed them. The calls are words filed in the database; no cut-off is given here.

Assays:
Human alphaherpesvirus 1 [1] = experiment: Antiviral activity against […] HSV1 KOS infected in African green monkey Vero cells assessed as inhibition of viral replication at 100 uM after 48 hrs by naphthol blue-black staining-based assay; type: functional; conditions: for inhibition at 100 µM: Human alphaherpesvirus 1, KOS
Trypanosoma cruzi [2] = experiment: Trypanocidal activity against Trypanosoma cruzi Tulahuen trypomastigotes infected in human THP1 cells assessed as growth inhibition after 48 hrs by chlorophenolred-beta-d-galactopyranoside/Nonidet P-40 reagent-based assay; type: functional
Leishmania amazonensis [3] = experiment: Leishmanicidal activity against Leishmania amazonensis MHOM/BR/77/LTB0016 amastigotes infected in human THP1 cells assessed as growth inhibition at 50 uM after 48 hrs by chlorophenolred-beta-d-galactopyranoside/Nonidet P-40 reagent-based assay; type: functional; conditions: for inhibition of growth at 50 µM: MHOM/BR/77/LTB0016, THP-1, 48 h, read-out: GI
Trypanosoma cruzi [4] = experiment: Trypanocidal activity against Trypanosoma cruzi Tulahuen trypomastigotes infected in human THP1 cells assessed as growth inhibition at 50 uM after 48 hrs by chlorophenolred-beta-d-galactopyranoside/Nonidet P-40 reagent-based assay; type: functional; conditions: for inhibition of growth at 50 µM: THP-1, 48 h, read-out: GI
Human alphaherpesvirus 1 [5] = experiment: Antiviral activity against […] HSV1 KOS infected in African green monkey Vero cells assessed as inhibition of viral replication after 48 hrs by naphthol blue-black staining-based assay; type: functional, organism-based
[6] = Selectivity index, ratio of CC50 for African green monkey Vero cells to IC50 for HSV1 KOS; type: toxicity; conditions: read-out: Ratio CC50/IC50
[7] = Cytotoxicity against African green monkey Vero cells assessed as reduction in cell viability after 48 hrs by sulforhodamine B assay; type: cell-based; conditions: chlorocebus sabaeus
[8] = Cytotoxicity against human THP1 cells assessed as reduction in cell viability by MTT assay; type: cell-based; conditions: THP-1 cells
[9] = Cytotoxicity against human HCT8 cells assessed as reduction in cell viability after 48 hrs by sulforhodamine B assay; type: cell-based; conditions: HCT-8 cells
[10] = Cytotoxicity against human A549 cells assessed as reduction in cell viability after 48 hrs by sulforhodamine B assay; type: cell-based
[11] = Selectivity index, ratio of CC50 for human THP1 cells to G150 for Trypanosoma cruzi Tulahuen trypomastigotes; type: toxicity; conditions: THP-1 cells, read-out: Selectivity Index
Trypanosoma cruzi [12] = experiment: Trypanocidal activity against Trypanosoma cruzi Tulahuen trypomastigotes infected in human THP1 cells at 20 uM after 48 hrs by chlorophenolred-beta-d-galactopyranoside/Nonidet P-40 reagent-based assay; type: functional; conditions: THP-1, 48 h, read-out: GI
Leishmania amazonensis [13] = experiment: Leishmanicidal activity against Leishmania amazonensis MHOM/BR/77/LTB0016 amastigotes infected in human THP1 cells assessed as growth inhibition at 2 uM after 48 hrs by chlorophenolred-beta-d-galactopyranoside/Nonidet P-40 reagent-based assay; type: functional; conditions: MHOM/BR/77/LTB0016, THP-1, 48 h, read-out: GI
[14] = Human alphaherpesvirus 1, KOS, Vero, 48 h, read-out: IC50

Row | SMILES | inhibition (Human alphaherpesvirus 1 [1]) | GI50 (Trypanosoma cruzi [2]; THP-1, 48 h) [µM] | inhibition of growth at 50 µM (Leishmania amazonensis [3]) [%] | inhibition of growth at 50 µM (Trypanosoma cruzi [4]) [%] | IC50 (Human alphaherpesvirus 1 [5]; vero) | IC50 (Human alphaherpesvirus 1 [5]; [14]) [µM] | inhibition at 100 µM (Human alphaherpesvirus 1 [1]) [%] | other results
1 | Cc1ccc(S(=O)(=O)NCc2cc(-c3ccc([N+](=O)[O-])cc3)no2)cc1 | inactive | > 50 | 9.3 | 9.8 | Not Active | – | – | –
2 | Nc1nc2c(ncn2COCCO)c(=O)[nH]1 [ACYCLOVIR] | – | – | – | – | – | 1.29 | – | selectivity ratio [6]: > 1500
3 | COc1ccc(-c2cc(CNS(=O)(=O)c3ccc(C)cc3)on2)cc1OC | inactive | > 50 | 4.1 | 25.6 | Not Active | – | – | –
4 | Cc1ccc(S(=O)(=O)NCc2cc(-c3ccc4c(c3)OCO4)no2)cc1 | – | – | 11.4 | – | – | > 100 | 19.1 | CC50 at 48 h [7]: > 500 µM; CC50 [8]: > 500 µM; GI50 (Trypanosoma cruzi [2]): inactive; CC50 at 48 h [9]: 437 µM; growth inhibition (GI) (Trypanosoma cruzi [4]): inactive; CC50 at 48 h [10]: 358 µM
5 | O=[N+]([O-])c1ccc(-c2cc(CNS(=O)(=O)c3ccc(Cl)cc3)on2)cc1 | inactive | – | 2 | – | Not Active | – | – | GI50 (Trypanosoma cruzi [2]): inactive; growth inhibition (GI) (Trypanosoma cruzi [4]): inactive
6 | O=[N+]([O-])c1ccc(-c2cc(CNS(=O)(=O)c3ccc(F)cc3)on2)cc1 | inactive | > 50 | 15.7 | 7.8 | Not Active | – | – | –
7 | COc1ccc(-c2cc(CNS(=O)(=O)c3ccc(C)cc3)on2)cc1 | – | – | 2 | – | – | 95.9 | 65 | CC50 at 48 h [7]: ≥ 331 µM; selectivity ratio [6]: > 3.4; CC50 [8]: > 500 µM; GI50 (Trypanosoma cruzi [2]): inactive; CC50 at 48 h [9]: > 500 µM; growth inhibition (GI) (Trypanosoma cruzi [4]): inactive; CC50 at 48 h [10]: > 500 µM
8 | COc1ccc(-c2cc(CNS(=O)(=O)c3ccc(Cl)cc3)on2)cc1OC | – | > 50 | – | 27.4 | – | > 100 | 2 | growth inhibition (GI) (Leishmania amazonensis [3]): inactive
9 | O=C(Cn1ccnc1[N+](=O)[O-])NCc1ccccc1 [BENZNIDAZOLE] | – | 10.2 | – | – | – | – | – | selectivity ratio [11]: > 49.1; inhibition of growth at 20 µM (Trypanosoma cruzi [12]): 96.6%
10 | COc1ccc(-c2cc(CNS(=O)(=O)c3ccc(F)cc3)on2)cc1 | – | > 50 | 14 | 44.5 | – | 87.4 | 100 | selectivity ratio [6]: > 5.7
11 | O=S(=O)(NCc1cc(-c2ccccc2)no1)c1ccc(F)cc1 | – | – | 13.2 | – | – | > 100 | 40.2 | GI50 (Trypanosoma cruzi [2]): inactive; growth inhibition (GI) (Trypanosoma cruzi [4]): inactive
12 | Cc1ccc(S(=O)(=O)NCc2cc(-c3ccccc3)no2)cc1 | – | > 50 | 10.9 | 5.8 | – | > 100 | 25.3 | –
13 | O=[N+]([O-])c1ccc(S(=O)(=O)NCc2cc(-c3ccc4c(c3)OCO4)no2)cc1 | – | 11.6 | 43.4 | 86.3 | – | > 100 | 25.3 | CC50 at 48 h [7]: 387 µM; CC50 [8]: 339 µM; CC50 at 48 h [9]: > 500 µM; selectivity ratio [11]: 29.1; CC50 at 48 h [10]: 284 µM
14 | O=[N+]([O-])c1ccc(-c2cc(CNS(=O)(=O)c3ccc([N+](=O)[O-])cc3)on2)cc1 | inactive | 38.6 | 25.2 | 76.2 | Not Active | – | – | selectivity ratio [11]: > 12.9
15 | O=S(=O)(NCc1cc(-c2ccccc2)no1)c1ccc(Cl)cc1 | – | > 50 | 17.2 | 16.6 | – | > 100 | 17.8 | –
16 | COc1ccc(-c2cc(CNS(=O)(=O)c3ccc([N+](=O)[O-])cc3)on2)cc1OC | inactive | > 50 | 10.2 | 53.9 | Not Active | – | – | –
17 | COc1ccc(-c2cc(CNS(=O)(=O)c3ccc(Cl)cc3)on2)cc1 | – | – | 6.4 | – | – | > 100 | 32 | GI50 (Trypanosoma cruzi [2]): inactive; growth inhibition (GI) (Trypanosoma cruzi [4]): inactive
18 | COc1ccc(-c2cc(CNS(=O)(=O)c3ccc([N+](=O)[O-])cc3)on2)cc1 | – | 14.3 | 48.7 | 85.8 | – | 137 | 60 | selectivity ratio [6]: > 3.6; selectivity ratio [11]: > 34.8
19 | O=S(=O)(NCc1cc(-c2ccc3c(c2)OCO3)no1)c1ccc(Cl)cc1 | inactive | > 50 | 30.7 | 14.2 | Not Active | – | – | –
20 | COc1ccc(-c2cc(CNS(=O)(=O)c3ccc(F)cc3)on2)cc1OC | – | 42.4 | 6.6 | 72.8 | – | > 100 | 22.8 | CC50 at 48 h [7]: 397 µM; CC50 [8]: 300 µM; CC50 at 48 h [9]: 374 µM; selectivity ratio [11]: 7.1; CC50 at 48 h [10]: 327 µM
21 | O=S(=O)(NCc1cc(-c2ccc3c(c2)OCO3)no1)c1ccc(F)cc1 | – | – | 12.8 | – | – | 173 | 70.1 | selectivity ratio [6]: > 2.9; GI50 (Trypanosoma cruzi [2]): inactive; growth inhibition (GI) (Trypanosoma cruzi [4]): inactive
22 | O=[N+]([O-])c1ccc(S(=O)(=O)NCc2cc(-c3ccccc3)no2)cc1 | – | > 50 | 18.4 | 34 | – | > 100 | 10.4 | –
23 | C[C@@H]1[C@H](O)[C@@H](C)/C=C/C=C/C=C/C=C/C=C/C=C/C=C/[C@H](O[C@@H]2O[C@H](C)[C@@H](O)[C@H](N)[C@@H]2O)C[C@@H]2O[C@](O)(C[C@@H](O)C[C@@H](O)[C@H](O)CC[C@@H](O)C[C@@H](O)CC(=O)O[C@H]1C)C[C@H](O)[C@H]2C(=O)O [AMPHOTERICIN B] | – | – | – | – | – | – | – | inhibition of growth at 2 µM (Leishmania amazonensis [13]): 92.1%
